One substance from US20170007704A1, “CARRIER AND PHARMACEUTICAL COMPOSITIONS FOR INTRASINAL DELIVERY AND USES THEREOF” (priority 2015, published 2017) can be followed below.

The experiment deals with multi-drug resistant P. aeruginosa. Nature of the experiment: Susceptibility of the patient's positive bacterial culture. The experiment is classed as cell-based. The note with it: positive bacterial culture of the patient before treatment. The source says: The patient was a person with an 8 year history of chronic rhinosinusitis with daily and recurrent symptoms including facial congestion, facial pain and pressure, headaches and mucopurulent nasal drainage. The patient achieved limited success with previous treatments which included oral antibiotics, oral/nasal corticosteroids, antibiotic irrigation, saline rinses and suctioning. A positive bacterial culture indicated the presence of multi-drug resistant P. aeruginosa, susceptible only to colistimethate. Colistimethate was only commercially available as a solution for intravenous infusion, requiring hospitalization and constant monitoring for neurotoxicity and nephrotoxicity. In order to avoid the intravenous route of administration and the necessary hospitalization, a novel topical formulation was prescribed, consisting of: […]

With colistimethate, the “susceptibility of cultured pathogen” value is reported as “susceptible”.
